In patent publication US8232273B2, “Heterocyclic compounds and methods of use” (Genentech, Inc., priority 2008, dated 2012):

Experiments:
Bcl-xL (GST-Bcl-xL) [1] = target: T1, Bcl-xL (GST-Bcl-xL) (Homo sapiens, UniProt Q07817); assay: TR-FRET binding assay, competition with F-Bak for the Bcl-xL binding site; conditions: values listed in the order of Table 1, read-out: TR-FRET assay results (Ki), Bcl-xL
Bcl-2 (GST-Bcl-2) = target: T2, Bcl-2 (GST-Bcl-2) (Homo sapiens, UniProt P10415); assay: TR-FRET binding assay, competition with F-Bak for the Bcl-2 binding site; conditions: Bcl-2, for comparison (selectivity)
T2 construct: made in house
Experimental: For each assay plate, a probe/antibody and protein/antibody/probe mixture were included as a negative and a positive control, respectively. Fluorescence was measured on the Envision (Perkin Elmer) using a 340/35 nm excitation filter and 520/525 (F-Bak) and 495/510 nm (Tb-labeled anti-his antibody) emission filters. Dissociation constants (Ki) were determined using Wang's equation (see, Wang, Z. X. An exact mathematical expression for describing competitive binding of two different ligands to a protein molecule. FEBS Lett. 1995 360:111-114). The TR-FRET assay can be performed in the presence of varying concentrations of human serum (HS) or fetal bovine serum (FBS). For comparison, the measurement of the competition of compounds of the invention for other Bcl-2 family protein binding sites (e.g., Bcl-2, Mcl-1) using the TR-FRET binding assay was accomplish by substituting GST-Bcl-xL in the TR-FRET assay with other GST-labeled protein, e.g., GST-Bcl-2, GST-Mcl-1, prepared in-house.

[2] = tested on: Mcl-1-/- mouse embryonic fibroblasts (MEF); assay: Cell viability assay for Mcl-1-/- mouse embryonic fibroblasts (CellTiter-Glo); type: cell-based; conditions: Fibroblast, in the presence of 10% Fetal Bovine Serum, read-out: MEF Mcl-1-/- KO cell viability results (EC50)
Source text: a. Cell Viability Assay for Mcl-1^−/− Mouse Embryonic Fibroblasts (MEF): […]
In this assay, Mcl-1^(−/−) cells were used to confirm that cell apoptosis in the presence of BH3 mimetic small molecules was due to predominantly Bcl-xL inactivation. This inactivation leaves Bax/Bak unconstrained and results in apoptosis. The […]-GLO Luminescent Cell Viability Assay is a homogeneous method of determining the number of viable cells in culture based on quantitation of the ATP present. The amount of ATP correlates with the presence of metabolically active cells such that following cell lysis the amount of ATP present is proportional to the amount of luminescence measured.
Mcl-1^(−/−) mouse embryonic fibroblasts (MEFs) are an adherent cell line prepared in house. MEFs were grown in Iwaki 75 cm^2 tissue culture flasks (cat #3123-075) with FMA media which consists of • 89% DME Kelso • 10% heat-inactivated foetal calf serum (FCS) (Hyclone cat #SH30396.03) • 1% 10 mM asparagine (Fluka cat #11149) • 275 μl of a 1:2000 dilution of 2-mercaptoethanol is added to the final 500 ml volume of FMA (Sigma cat #M7522; diluted in MT-PBS)
FMA was stored at 4° C. and used at 37° C. MEFs were cultured in FMA media and harvested in MT-PBS and trypsin. For MEF cell viability assays, cells were seeded separately in plates with 10% FCS-FMA and 1% FCS-FMA.
Assays were performed using white, flat clear-bottom Greiner 384-well tissue culture grade (Interpath #781098) plates. The compounds were made up in Matrical 384-well, 25 μl V-bottomed plates (cat #MP101-2-PP), sealed with aluminium foil from Beckman Coulter (cat #538619) and stored at 12° C. overnight. Compound preparation and titrations were performed in AnalaR grade DMSO (Merck cat #1.02952.2500). The cell viability detection assay used was […]-GLO™ which is commercially available from Promega (cat #G7572), stored at −20° C. and used at 37° C.
Compounds of the invention were prepared as 10 mM solution in 100% DMSO and stored at −20° C. Compounds were thawed to room temperature and dispensed into a 384 well Matrical plate. Standard control compounds, e.g. 32.3 mM Etoposide, were added to the plate as controls.
The media was aspirated and the Mcl-1^(−/−) cells washed with 10 mls of warmed MT-PBS. MT-PBS was aspirated and 1 ml of trypsin was added. The T75 flasks were incubated at 37° C. until the cells became detached. 4 ml of 10% FCS FMA media was added to the trypsinized cells and the entire volume was transferred to a 50 ml centrifuge tube and centrifuged for 3 minutes at 250 g. The supernatant was aspirated and the pellet resuspended in 10 ml of 10% FCS FMA. 3 ml of this cell suspension was added to a clean 75 cm^2 flask containing 17 ml of 10% FCS FMA media, thus performing a 3:10 split. The remaining cell suspension was used to perform a 1:50 split into another 75 cm^2 flask for further culturing.
Cells were harvested as per method step 1 and the pellet resuspended in 3 mls 10% FCS FMA. Cell number was determined by counting in a Neubauer haemocytometer and the dilution calculated to achieve a density of 1×10^4 cells ml^−1 (500 cells per well in 50 μl media). Separate dilutions were prepared in 50 ml 10% FCS FMA and 50 ml 1% FCS FMA solutions respectively.
Four assay plates were set up per compound plate. Two 384 well plates containing Mcl-1^(−/−) cells in 10% FCS FMA and the other two plates containing Mcl-1^(−/−) cells in 1% FCS FMA.
Using the Multidrop, 25 μl cells were dispensed aseptically into all 384 wells of the assay plates. Plates were left to rest in a non-stacked layer at room temperature for approximately 30 minutes (minimizes edge-effects) and then were placed as a single layer in the 37° C. incubator. The plates were left to incubate overnight.
The compound plates were titrated by performing a 3-fold 11-point dilution series using 100% DMSO on the MiniTrak. Following titration of the compounds, 100 nl of compounds were added to the cell plates using the Zymark Sciclone Pintool. […]

Bcl-xL (GST-Bcl-xL) [3] = target: T1, Bcl-xL (GST-Bcl-xL); assay: AlphaScreen Bcl-xL binding assay, competition with biotinylated Bim peptide; parameters: made in house; conditions: values listed in the order of Table 1; read-out: Alphascreen results (IC50) against the Bcl-xL protein
Method in brief: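 Acceptor beads with GST-Bcl-xL were combined with donor beads carrying biotinylated Bim peptide after each bead mix was preincubated 30 min at room temperature. Compounds in DMSO, 2-fold serially diluted, were incubated 30 min at room temperature before donor addition, with duplicate plates. Percent inhibition was taken against no-protein and DMSO controls, and IC50 was calculated.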

platelets = assay: Cell viability assay for platelets (platelet rich plasma, CellTiter-Glo); type: cell-based; conditions: approximately 4 hours at 37 C
Experimental: Platelet rich plasma (PRP) was incubated with a compound of the invention for approximately 4 hours at 37° C. After incubation, platelets were equilibrated to room temperature for 20 minutes and then and equal volume of CELL TITER-GLO™ reagent (Promega Corporation) was added. Samples were mixed for two minutes and then allowed to equilibrate for an additional 10 minutes at room temperature. The luminescence generated from the samples was quantitated using a LJL Analyst plate reader. Data analysis was performed using GraphPad Prism 4.0.

T2 sequence (P10415 whole entry, species assumed): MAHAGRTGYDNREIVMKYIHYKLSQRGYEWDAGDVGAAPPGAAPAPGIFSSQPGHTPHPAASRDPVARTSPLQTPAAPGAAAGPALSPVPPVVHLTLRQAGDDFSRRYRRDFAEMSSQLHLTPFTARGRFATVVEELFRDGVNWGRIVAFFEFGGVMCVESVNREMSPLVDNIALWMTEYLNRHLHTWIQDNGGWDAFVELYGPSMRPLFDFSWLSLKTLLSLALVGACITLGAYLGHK
T1 sequence (Q07817 whole entry, species assumed): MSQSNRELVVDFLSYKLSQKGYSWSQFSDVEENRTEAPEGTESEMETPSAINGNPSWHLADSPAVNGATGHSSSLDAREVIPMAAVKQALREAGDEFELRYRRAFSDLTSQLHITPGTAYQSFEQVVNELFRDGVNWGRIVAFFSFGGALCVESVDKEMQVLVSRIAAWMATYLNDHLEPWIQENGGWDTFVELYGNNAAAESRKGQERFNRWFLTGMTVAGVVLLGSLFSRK

SMILES | Ki (Bcl-xL (GST-Bcl-xL) [1]) [nM] | Ki (Bcl-2 (GST-Bcl-2)) [nM] | EC50 [2] [nM] | IC50 (Bcl-xL (GST-Bcl-xL) [3]) [nM] | EC50 (platelets) [nM]
N#Cc1ncccc1-c1ccc(OCCCc2sc(N3CCc4cccc(C(=O)Nc5nc6ccccc6s5)c4C3)nc2C(=O)O)cc1 [Example 58, 2-[8-(Benzothiazol-2-ylcarbamoyl)-3,4-dihydro-1H-isoquinolin-2-yl]-5-{3-[4-(2-cyano-pyridin-3-yl)-phenoxy]-propyl}-thiazole-4-carboxylic acid] | 0.5 | 310 | 1300 |  | 
O=C(Nc1nc2ccccc2s1)c1cccc2c1CN(c1nc(C(=O)O)c(CCCOc3ccc(N4CCNCC4)cc3)s1)CC2 [Example 64, 2-[8-(Benzothiazol-2-ylcarbamoyl)-3,4-dihydro-1H-isoquinolin-2-yl]-5-[3-(4-piperazin-1-yl-phenoxy)-propyl]-thiazole-4-carboxylic acid] | 0.05 | 90 | 310 |  | 
CN(C)CCOc1ccc(OCCCc2sc(N3CCc4cccc(C(=O)Nc5nc6ccccc6s5)c4C3)nc2C(=O)O)cc1 [Example 75, 2-[8-(Benzothiazol-2-ylcarbamoyl)-3,4-dihydro-1H-isoquinolin-2-yl]-5-{3-[4-(2-dimethylamino-ethoxy)-phenoxy]-propyl}-thiazole-4-carboxylic acid] | 0.05 |  |  | 0.1 | 9
O=C(Nc1nc2ccccc2s1)c1cccc2c1CN(c1nc(C(=O)O)c(CCCOc3ccc(-c4ncccn4)cc3)s1)CC2 [Example 81, 2-[8-(Benzothiazol-2-ylcarbamoyl)-3,4-dihydro-1H-isoquinolin-2-yl]-5-[3-(4-pyrimidin-2-yl-phenoxy)-propyl]-thiazole-4-carboxylic acid] | 0.05 | 110 | 10 |  | 
N#Cc1nccnc1-c1ccc(OCCCc2sc(N3CCc4cccc(C(=O)Nc5nc6ccccc6s5)c4C3)nc2C(=O)O)cc1 [Example 86, 2-[8-(Benzothiazol-2-ylcarbamoyl)-3,4-dihydro-1H-isoquinolin-2-yl]-5-{3-[4-(3-cyano-pyrazin-2-yl)-phenoxy]-propyl}-thiazole-4-carboxylic acid] | 0.07 |  |  |  | 10
CN1CCN(c2cccc(OCCCc3sc(N4CCc5cccc(C(=O)Nc6nc7ccccc7s6)c5C4)nc3C(=O)O)c2)CC1 [Example 87, 2-[8-(Benzothiazol-2-ylcarbamoyl)-3,4-dihydro-1H-isoquinolin-2-yl]-5-{3-[3-(4-methyl-piperazin-1-yl)-phenoxy]-propyl}-thiazole-4-carboxylic acid] | 0.05 |  |  |  | 3
O=C(Nc1nc2ccccc2s1)c1cccc2c1CN(c1nc(C(=O)O)c(CCCOc3ccc(OCCN4CCOCC4)cc3)s1)CC2 [Example 88, 2-[8-(Benzothiazol-2-ylcarbamoyl)-3,4-dihydro-1H-isoquinolin-2-yl]-5-{3-[4-(2-morpholin-4-yl-ethoxy)-phenoxy]-propyl}-thiazole-4-carboxylic acid] | 0.05 | 300 | 28 |  | 3
CN(C)CCOc1ccc(-c2ccc(OCCCc3sc(N4CCc5cccc(C(=O)Nc6nc7ccccc7s6)c5C4)nc3C(=O)O)cc2)nc1 [Example 90, 2-[8-(Benzothiazol-2-ylcarbamoyl)-3,4-dihydro-1H-isoquinolin-2-yl]-5-(3-{4-[5-(2-dimethylamino-ethoxy)-pyridin-2-yl]-phenoxy}-propyl)-thiazole-4-carboxylic acid] | 0.05 |  |  |  | 3
CN1CCN(c2ccc(OCCCc3ccc(N4CCc5cccc(C(=O)Nc6nc7ccccc7s6)c5C4)nc3C(=O)O)cc2)CC1 [Example 94, 6-[8-(Benzothiazol-2-ylcarbamoyl)-3,4-dihydro-1H-isoquinolin-2-yl]-3-{3-[4-(4-methyl-piperazin-1-yl)-phenoxy]-propyl}-pyridine-2-carboxylic acid] | 2 | 572 | 448 |  | 
CN(C)CCOc1ccc(-c2ccc(OCCCc3ccc(N4CCc5cccc(C(=O)Nc6nc7ccccc7s6)c5C4)nc3C(=O)O)cc2)nc1 [Example 95, 6-[8-(Benzothiazol-2-ylcarbamoyl)-3,4-dihydro-1H-isoquinolin-2-yl]-3-(3-{4-[5-(2-dimethylamino-ethoxy)-pyridin-2-yl]-phenoxy}-propyl)-pyridine-2-carboxylic acid] | 0.05 |  |  |  | 3
O=C(Nc1nc2ccccc2s1)c1cccc2c1CN(c1ccc(CCCOc3ccc(-c4ncccn4)cc3)c(C(=O)O)n1)CC2 [Example 96, 6-[8-(Benzothiazol-2-ylcarbamoyl)-3,4-dihydro-1H-isoquinolin-2-yl]-3-[3-(4-pyrimidin-2-yl-phenoxy)-propyl]-pyridine-2-carboxylic acid] | 0.1 |  |  |  | 354
CN(C)CCCc1ccc(OCCCc2ccc(N3CCc4cccc(C(=O)Nc5nc6ccccc6s5)c4C3)nc2C(=O)O)c(F)c1 [Example 100, 6-[8-(Benzothiazol-2-ylcarbamoyl)-3,4-dihydro-1H-isoquinolin-2-yl]-3-{3-[4-(3-dimethylamino-propyl)-2-fluoro-phenoxy]-propyl}-pyridine-2-carboxylic acid] | 0.5 | 219 | 399 |  | 
